From patent US6333320A, “Hexahydro-1,4-diazepine derivatives or salts thereof” (Yamanouchi Pharmaceutical Co., priority 1997, dated 2001)
Structures can show the parent of a compound that is named as a salt.

These compounds were tested against T1, human activated blood coagulation factor X (Homo sapiens, UniProt P00742) (assay: measuring the time for blood coagulation with the human activated blood coagulation factor X). Settings: dose of the test compound for 2-time prolongation of the coagulation time; human plasma, 37° C.; read-out: Test for measuring coagulation time with the human activated blood coagulation factor X, CT2.
T1 construct: disulfide-linked light and heavy chains of one precursor) added to human plasma with CaCl2; clotting time CT2
T1 sequence (P00742 41-179): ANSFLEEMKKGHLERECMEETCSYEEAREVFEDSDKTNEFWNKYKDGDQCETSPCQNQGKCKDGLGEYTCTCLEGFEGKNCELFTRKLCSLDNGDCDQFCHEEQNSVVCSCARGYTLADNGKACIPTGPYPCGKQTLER
T1 sequence (P00742 235-488): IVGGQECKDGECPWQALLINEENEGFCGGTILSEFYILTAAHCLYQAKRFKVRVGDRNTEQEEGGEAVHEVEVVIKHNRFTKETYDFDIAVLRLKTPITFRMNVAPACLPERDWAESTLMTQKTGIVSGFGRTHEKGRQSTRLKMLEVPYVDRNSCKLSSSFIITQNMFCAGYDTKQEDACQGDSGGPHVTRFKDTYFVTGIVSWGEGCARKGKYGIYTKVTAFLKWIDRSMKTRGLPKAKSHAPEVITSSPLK
Format: biochemical
Description: 1) Method of measuring the time for blood coagulation with the human activated blood coagulation factor X:
The human activated blood coagulation factor X (Cosmo-Bio Co.) was dissolved in 0.05 M tris-HCl buffer (pH=7.40) to prepare its solution of 0.05 units/ml. Blood was collected in 3.8% sodium citrate to be 1/10 by volume, and centrifuged at 3,000 rpm for 10 minutes to separate human plasma therefrom. 90 μl of the thus-prepared human plasma, 10 μl of a test compound as diluted with physiological saline, and 50 μl of the solution of the activated blood coagulation factor X were kept warmed at 37° C. for 3 minutes, to which was added 100 μl of a solution of 20 mM CaCl2, and the time for blood coagulation in the system was measured.
To measure the coagulation time, used was Amelung's KC4A. The dose of the test compound for 2-time prolongation of the coagulation time (hereinafterreferred to as CT2) was calculated on the basis of the coagulation time for the control to which was added 10 μl of physiological saline with no test compound.

`CCOC(=O)CC(=O)N(Cc1ccc2ccc(C(=N)N)cc2c1)c1ccc(N2CCCN(C(C)=N)CC2)nc1` [Example 72] was tested. Which EC (2-fold clotting time) did it give?
Its EC (2-fold clotting time) is 0.119 µM.

For `CC(=N)N1CCCN(c2ccc(N(Cc3ccc4ccc(C(=N)N)cc4c3)C(=S)NCC(=O)O)cc2)CC1` [Example 75, N-[4-(4-Acetimidoylhexahydro-1H-1,4-diazepin-1-yl)phenyl]-N-[(7-amidino-2-naphthyl)methyl]thioamido-acetic acid], which EC (2-fold clotting time) is on record?
Its EC (2-fold clotting time) is 0.095 µM.

`CC(=N)N1CCCN(c2ccc(N(Cc3ccc4ccc(C(=N)N)cc4c3)C(=O)CCC(=O)O)cc2)CC1` [Example 36, N-[4-(4-Acetimidoylhexahydro-1H-1,4-diazepin-1-yl)phenyl]-N-[(7-amidino-2-naphthyl)methyl] succinamic acid] was tested. Which EC (2-fold clotting time) did it give?
Its EC (2-fold clotting time) is 0.069 µM.

With `CCOC(=O)CC(=O)N(Cc1ccc2ccc(C(=N)N)cc2c1)c1ccc(N2CCCN(C(C)=N)CC2)cc1` [Example 24, Ethyl N-[4-(4-acetimidoylhexahydro-1H-1,4-diazepin-1-yl)phenyl]-N-[(7-amidino-2-naphthyl)methyl]malonamate] as the compound, how does the EC (2-fold clotting time) read?
The EC (2-fold clotting time) was 0.152 µM.

How did the EC (2-fold clotting time) turn out when `CCOC(=O)CNS(=O)(=O)N(Cc1ccc2ccc(C(=N)N)cc2c1)c1ccc(N2CCCN(C(C)=N)CC2)cc1` [Example 23, Ethyl N-[N-[4-(4-acetimidoylhexahydro-1H-1,4-diazepin-1-yl)phenyl]-N-[(7-amidino-2-naphthyl)methyl]-sulfamoyl]glycinate] was run?
The EC (2-fold clotting time) was 0.11 µM.

With `CCOC(=O)CCC(=O)N(Cc1ccc2ccc(C(=N)N)cc2c1)c1ccc(N2CCCN(C(C)=N)CC2)nc1` [Example 73] as the compound, how does the EC (2-fold clotting time) read?
Its EC (2-fold clotting time) is 0.224 µM.

How did the EC (2-fold clotting time) turn out when `CCOC(=O)CS(=O)(=O)N(Cc1ccc2ccc(C(=N)N)cc2c1)c1ccc(N2CCCN(C(C)=N)CC2)cc1` [Example 22, ethyl [N-[4-(4-acetimidoylhexahydro-1H-1,4-diazepin-1-yl)phenyl]-N-[(7-amidino-2-naphthyl)methyl]-sulfamoyl]acetate dihydrochloride] was run?
The EC (2-fold clotting time) was 0.111 µM.

Which EC (2-fold clotting time) does the source give for `CC(=N)N1CCCN(c2ccc(N(Cc3ccc4ccc(C(=N)N)cc4c3)S(=O)(=O)CC(=O)O)cn2)CC1` [Example 32, [N-[6-(4-Acetimidoylhexahydro-1H-1,4-diazepin-1-yl)-3-pyridyl]-N-[(7-amidino-2-naphthyl)methyl]sulfamoyl]acetic acid] here?
The EC (2-fold clotting time) was 0.089 µM.

`CC(=N)N1CCCN(c2ccc(N(Cc3ccc4ccc(C(=N)N)cc4c3)C(C)=O)cc2)CC1` [Example 17] was tested. Which EC (2-fold clotting time) did it give?
Its EC (2-fold clotting time) is 0.092 µM.

`CC(=N)N1CCCN(c2ccc(N(Cc3ccc4ccc(C(=N)N)cc4c3)C(=O)CCC(=O)O)cn2)CC1` [Example 84] was tested. Which EC (2-fold clotting time) did it give?
The EC (2-fold clotting time) was 0.134 µM.

For `CC(=N)N1CCCN(c2ccc(N(Cc3ccc4ccc(C(=N)N)cc4c3)S(=O)(=O)CC(=O)O)cc2)CC1` [Example 33, [N-[4-(4-acet-imidoylhexahydro-1H-1,4-diazepin-1-yl)phenyl]-N-[(7-amidino-2-naphthyl)methyl]sulfamoyl]acetic acid dihydro-chloride], which EC (2-fold clotting time) is on record?
Its EC (2-fold clotting time) is 0.098 µM.
